Measurements as given in PMC3904841, “Crystal Structures of HIV-1 gp120 Envelope Glycoprotein in Complex with NBD Analogues That Target the CD4-Binding Site” (PLoS ONE, 2014).
pIC50, pKd: −log10 of the molar value. Read-outs that look alike come from different tables or passages of the source.

Columns and labels:
[1] = system: amphotropic murine leukemia virus (A-MLV); settings: cells infected with A-MLV, cited from earlier work
HIV-1YU2 virus = settings: cited from earlier work; for Activation of Viral Infectivity: relative, CD4 negative Cf2Th-CCR5 cells; for activation of viral infectivity in CD4-negative cells (in words): summary of Table S1
HIV-1 YU2 virus = settings: cited from earlier work; for pIC50: Cf2Th-CD4/CCR5 cells infected with HIV-1 YU2 virus
gp120 coremin = experiment: SPR enhancement of gp120 coremin binding to 17b antibody; parameters: species or system HIV-1; settings: 100 nM gp120, 0–100 µM compound, 17b captured on CM5 chip
From the text: A major undesired trait of NBD analogues as HIV-1 entry inhibitors is their capacity to activate viral infectivity in CD4-negative cells. To understand the underlying mechanisms of activation of HIV-1 infectivity in CD4-negative cells in the presence of select NBD analogues, we asked if the capacity of the four analogues to induce gp120 conformational change to the CD4-bound state might account for observed differences in viral infectivity. To address this question, we employed surface-plasmon resonance (SPR) and measured the capacity of NBD-557, (±)-AS-II-37, (±)-AS-I-261, (±)-MAE-II-167, and (±)-MAE-II-188 to increase the binding affinity of either the minimal core (coremin) or full-length gp120 for the 17b antibody, which recognizes gp120 in the CD4-bound conformation. We chose gp120 coremin over coree for SPR measurement because the coree is already in the CD4 bound conformation, and the effect of these small molecules on 17b-gp120 interaction is undetectable.
Figure 7 NBD analogue binding to gp120 enhances 17b-gp120 interaction. (A–D) 100 nM of gp120 coremin or full-length gp120 in the presence of 0–100 µM of NBD analogues was passed over 17b antibody immobilized on a CM5 chip. The binding of gp120 to 17b increased, in a concentration dependent manner, in response to treatment with the NBD analogues.
SPR experiments were performed using Biacore T100 (GE Healthcare) at 25°C. […] HBS-EP buffer (GE Healthcare) was used for the running buffer. A capture method was used to monitor the enhancement of gp120 binding to 17b by NBD-analogues. […] The running buffer contained 20 mM HEPES, pH 7.4, 150 mM NaCl, 0.05% P-20, and 5% DMSO.

gp120 = settings: cited from earlier work; for pKd: binding affinity for gp120
Cf2Th-CD4-CCR5 cells = system: Cf2Th-CD4-CCR5 cells; parameters: method as in PMID 22497421; settings: 100 µM; ref [24]; cited from earlier work
[2] = system: Clade A/E93TH057 gp120 coree; experiment: SPR binding of gp120 coree to immobilized NBD-556 and sCD4; parameters: species or system HIV-1; settings: ligand on CM5 chip, His 375
From the text: (§1) Our structures reveal that Region I and II of the NBD congeners fit deeply within the Phe 43 cavity. As such, mutations that alter the shape of the cavity will also affect binding of the small molecules to gp120. One residue in close proximity to Region I and II of the NBD congeners is Ser 375 (vide supra). […] In several group O, N, or M HIV-1 viruses, Ser 375 of gp120 is replaced with either Met or His. […] However, the rate of Ser 375 to Trp mutation may be counterbalanced because the same mutation is also detrimental to the viruses by predisposing gp120 to adopt the CD4-bound conformation, a state prone to inactivation. Overall, the Phe 43 cavity remains an indispensable target for small molecule inhibitors.
(§2) Figure 8 NBD analogues are unable to bind Ser 375 variants of gp120s. […] Ser 375 was shown in the NBD-557 bound cavity. […] NBD-557 modeled into the Phe 43 cavity of clade A/E gp120 clashes with His 375. […] Met 375 modeled into NBD-557-bound YU2 gp120 clashes with NBD-557. […] NBD-557 clashes with Trp 375 in the Phe 43 cavity.

[3] = system: Clade AKER2008 gp120 coree; experiment: as above; parameters: species or system HIV-1; settings: ligand on CM5 chip, Met 375
From the text: as §1, §2

[4] = system: Clade CRF34_1OUR2478P gp120 coree; experiment: as above; parameters: species or system HIV-1; settings: ligand on CM5 chip, Trp 375
From the text: as §1, §2

[5] = system: full-length gp120 variants possessing the Ser 375 to Trp mutation (S375W); parameters: method as in PMID 19000821; settings: ref [21]; cited from earlier work
[6] = system: laboratory-adapted HIV-1IIIB strain; parameters: method as in Zhao et al. [18]; settings: printed in the HIV-1 YU2 column, but determined in laboratory-adapted HIV-1IIIB strain; ref Zhao et al. [18]; cited from earlier work
[7] = system: virus expressing the S375W Env gp120; parameters: method as in PMID 19000821; settings: virus expressing S375W Env gp120 incubated with target cells; ref [21]; cited from earlier work
[8] = HIV-1YU2, normalized to 2 (NBD-557), ref [24,27]
[9] = HIV-1YU2, normalized to N-(4-Chloro-3-Fluorophenyl)-N'-(1,2,2,6,6-Pentamethylpiperidin-4-yl)ethanediamide, ref [24,27]
[10] = HIV-1YU2, normalized to 1 (NBD-556), ref Madani et al. [21]

In the case of CC1(C)O[C@@H](CN)[C@H](CNC(=O)C(=O)Nc2ccc(Cl)c(F)c2)O1 (relative stereo) [AS-I-261], the pIC50 ([1]; ref [24,27]) is listed as 4.03, the “Activation of Viral Infectivity” value (HIV-1YU2 virus; [8]) is listed as 1.5 and the “activation of viral infectivity in CD4-negative cells (in words)” value (HIV-1YU2 virus; ref [24,27]) is listed as “activated viral infectivity”. For the same molecule, the pIC50 (HIV-1 YU2 virus; ref [24,27]) was 4.12, the “enhancement of gp120 coremin binding to 17b” value (shortened to “enhancement … to 17b”) (gp120 coremin) was “equally enhanced” and the pKd (gp120; ref [24,27]) was 5.59.
For O=C(NC[C@@]12CCC[C@@H]1CNC2)C(=O)Nc1ccc(Cl)c(F)c1 (relative stereo) [MAE-II-167], the pIC50 ([1]; ref [24,27]) is listed as 4.03, the “Activation of Viral Infectivity” value (HIV-1YU2 virus; [8]) is listed as 0.0 and the pIC50 (HIV-1 YU2 virus; ref [24,27]) is listed as 4.17. The “enhancement … to 17b” value (gp120 coremin) was “equally enhanced” and the pKd (gp120; ref [24,27]) was 5.51.
In the case of O=C(NCC1NCCc2ccccc21)C(=O)Nc1ccc(Cl)c(F)c1 (centres unmarked) [AS-II-37], the pIC50 ([1]; ref [24,27]) is given as < 4.00, the “Activation of Viral Infectivity” value (HIV-1YU2 virus; [8]) is given as 0.6 and the pIC50 (HIV-1 YU2 virus; ref [24,27]) is given as 4.30. For the same molecule, the “enhancement … to 17b” value (gp120 coremin) was “somewhat reduced enhancement” and the pKd (gp120; ref [24,27]) was 5.92.
In the case of N=C(N)N[C@@H]1Cc2ccccc2[C@H]1NC(=O)C(=O)Nc1ccc(Cl)c(F)c1 [AWS-I-169], the pIC50 ([1]; ref [24,27]) is given as < 4.00, the “Activation of Viral Infectivity” value (HIV-1YU2 virus; [9]) is given as 0.0 and the pIC50 (HIV-1 YU2 virus; ref [24,27]) is given as 4.67. For the same molecule, the pKd (gp120; ref [24,27]) was 6.52.
With COc1ccnc2[nH]cc(C(=O)C(=O)N3CCN(C(=O)c4ccccc4)C[C@H]3C)c12 [BMS-806, reference compound] the “enhancement … to 17b” value (gp120 coremin) was “did not enhance”.
In the case of N=C(N)N[C@H]1Cc2ccccc2[C@@H]1NC(=O)C(=O)Nc1ccc(Cl)c(F)c1 [DMJ-I-228], the pIC50 ([1]; ref [24,27]) is given as < 4.00, the “Activation of Viral Infectivity” value (HIV-1YU2 virus; [9]) is given as 0.0 and the “activation of viral infectivity in CD4-negative cells (in words)” value (HIV-1YU2 virus; ref [24,27]) is given as “did not”. The “effect on cell growth dynamics (cytotoxicity)” value (Cf2Th-CD4-CCR5 cells) was “does not alter the cell growth dynamics”, the pIC50 (HIV-1 YU2 virus; ref [24,27]) was 4.64 and the pKd (gp120; ref [24,27]) was 6.60.
In the case of N=C(N)NC[C@H]1Cc2ccccc2[C@@H]1NC(=O)C(=O)Nc1ccc(Cl)c(F)c1 [DMJ-II-121], the pIC50 ([1]; ref [24,27]) is given as < 4.00, the “Activation of Viral Infectivity” value (HIV-1YU2 virus; HIV-1YU2, normalized to 1 (NBD-556), ref [24,27]) is given as 0.0 and the pIC50 (HIV-1 YU2 virus; ref [24,27]) is given as 5.64. The pKd (gp120; ref [24,27]) was 6.96.
In the case of CC1(C)CC(NC(=O)C(=O)Nc2ccc(Cl)c(F)c2)CC(C)(C)N1 [JRC-II-191], the pIC50 ([1]; ref Madani et al. [21]) is listed as < 4.00, the “Activation of Viral Infectivity” value (HIV-1YU2 virus; [10]) is listed as 1.9 ± 0.2 and the pIC50 (HIV-1 YU2 virus; ref Madani et al. [21]) is listed as 4.26. The “inhibition of HIV-1YU2 infection of cells expressing CD4 and CCR5” value (HIV-1 YU2 virus; compared with NBD-556, ref [21], [27]) was “more potently than NBD-556” and the “enhancement of binding affinity for YU2 gp120” value (gp120; para-chloro, meta-fluoro aromatic ring, compared with NBD-556, ref [21], [27]) was 5 fold.
For O=C(NCC1CCN(C2CC2)C1)C(=O)Nc1ccc(Cl)c(F)c1 (centres unmarked) [MAE-II-188], the pIC50 ([1]; ref [24,27]) is given as < 4.00, the “Activation of Viral Infectivity” value (HIV-1YU2 virus; [8]) is given as 0.3 and the “enhancement … to 17b” value (gp120 coremin) is given as “equally enhanced”.
In the case of CC1(C)CC(NC(=O)C(=O)Nc2ccc(Cl)cc2)CC(C)(C)N1 [NBD-556], the pIC50 ([1]; ref Madani et al. [21]) is given as < 4.00, the “Activation of Viral Infectivity” value (HIV-1YU2 virus; [10]) is given as 1.0 ± 0.1 and the “binding of gp120 coree to immobilized ligand” value (“binding of gp120 coree” below) [2] is given as “does not show detectable binding”. For the same molecule, the “binding of gp120 coree” value [3] was “does not bind”, the “binding of gp120 coree” value [4] was “does not bind” and the pIC50 (HIV-1 YU2 virus; ref Madani et al. [21]) was < 4.00. The “binding to S375W full-length gp120” value [5] was “inefficiently bind”.
For CC1(C)CC(NC(=O)C(=O)Nc2ccc(Br)cc2)CC(C)(C)N1 [NBD-557, reference compound], the pIC50 [6] is listed as 5.51, the “Activation of Viral Infectivity” value (HIV-1YU2 virus; [10]) is listed as 0.9 ± 0.4 and the “enhancement of CD4-independent viral entry” value [7] is listed as “does not enhance”. For the same molecule, the pKd (gp120; ref Madani et al. [21]) was 5.66.
